# US20240132431A1, “METHOD FOR ALKYLATING ACIDIC FUNCTIONAL GROUP” (Chugai Seiyaku Kabushiki Kaisha, priority 2021, published 2024)
# Molecular target: T1, Bcl-2 protein (Recombinant Human Bcl-2 Protein) (Homo sapiens, UniProt P10415)
# T1 construct: purchased Novus NBP2-34889
# Experiment: Binding evaluation of mixture library compounds to Bcl-2 using AS-MS (affinity selection mass spectrometry)
# Conditions: for ASMS ratio (%) n = 1 / ASMS ratio (%) n = 2: ASMS Ratio(%)=(A−C)/B×100; for ASMS ratio (%) n = 1: replicate n = 1; for ASMS ratio (%) n = 2: replicate n = 2
# In short: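 Pooled library of ~1200 compounds ([…] each, final) incubated with recombinant human Bcl-2 (20 μM final) in Tris-HCl pH 7.4, NaCl, Tween-20, DTT buffer, dark, 23° C., 1 h. Bound fraction recovered by SEC spin column, organic extraction, reversed-phase LC/MS. ASMS Ratio (%) = (A−C)/B×100 versus protein-free standard and SEC blank.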
# [1] = AS-MS, mixture of 1200 compounds, Bcl-2
# [2] = AS-MS on the mixture of 1200 library compounds
# T1 sequence (P10415 whole entry): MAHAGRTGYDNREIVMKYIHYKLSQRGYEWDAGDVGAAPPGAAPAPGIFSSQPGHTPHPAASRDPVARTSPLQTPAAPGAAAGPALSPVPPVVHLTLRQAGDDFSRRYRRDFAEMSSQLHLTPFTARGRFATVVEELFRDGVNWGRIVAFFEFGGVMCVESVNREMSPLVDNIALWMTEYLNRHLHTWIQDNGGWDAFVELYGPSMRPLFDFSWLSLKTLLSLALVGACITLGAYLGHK
compound,measurement,setting,value
"CCOc1cccc(-c2cc(C(=O)N3CCN(c4ccc(C(=O)NCC56CC7CC(CC(C7)C5)C6)nn4)CC3)cc(C(F)(F)F)c2)c1 [B1A017-01, N-(1-Adamantylmethyl)-6-[4-[3-(3-ethoxyphenyl)-5-(trifluoromethyl)benzoyl]piperazin-1-yl]pyridazine-3-carboxamide]",ASMS ratio (%) n = 1,[1],5.4%
same,ASMS ratio (%) n = 2,[1],5.4%
"CCOc1cccc(-c2cnn(-c3cc(C(=O)N4CCN(c5ccc(C(=O)NS(=O)(=O)C(C)(C)C)nn5)CC4)cc(C(F)(F)F)c3)c2)c1 [B2L021-01, N-tert-Butylsulfonyl-6-[4-[3-[4-(3-ethoxyphenyl)pyrazol-1-yl]-5-(trifluoromethyl)benzoyl]piperazin-1-yl]pyridazine-3-carboxamide]",ASMS ratio (%),n = 1,0.0%
same,ASMS ratio (%),n = 2,−14.9%
"CCOc1cncc(-c2cc(C(=O)N3CCN(c4ccc(C(=O)NS(=O)(=O)CC56CC7CC(CC(C7)C5)C6)nn4)CC3)cc(C(F)(F)F)c2)c1 [B2A018-01, N-(1-Adamantylmethylsulfonyl)-6-[4-[3-(5-ethoxypyridin-3-yl)-5-(trifluoromethyl)benzoyl]piperazin-1-yl]pyridazine-3-carboxamide]",ASMS ratio (%) n = 1,"AS-MS, mixture library, Bcl-2",5.1%
same,ASMS ratio (%) n = 2,"AS-MS, mixture library, Bcl-2",0.0%
"CCOc1cncc(-c2csc(C(=O)N3CCN(c4ccc(C(=O)N(C)CC56CC7CC(CC(C7)C5)C6)nn4)CC3)c2)c1 [B3A002-01, N-(1-Adamantylmethyl)-6-[4-[4-(5-ethoxypyridin-3-yl)thiophene-2-carbonyl]piperazin-1-yl]-N-methylpyridazine-3-carboxamide]",ASMS ratio (%) n = 1,[2],1.9%
same,ASMS ratio (%) n = 2,[2],−1.2%
"CCOc1cncc(-c2ccc(CN3CCN(c4ccc(C(=O)NS(=O)(=O)c5ccc(NCCSc6ccccc6)c([N+](=O)[O-])c5)cc4)CC3)c(CC)c2)c1 [B2Q050-01, 4-[4-[[4-(5-Ethoxypyridin-3-yl)-2-ethylphenyl]methyl]piperazin-1-yl]-N-[3-nitro-4-(2-phenylsulfanylethylamino)phenyl]sulfonylbenzamide]",ASMS ratio (%) n = 1,"AS-MS, mixture library, Bcl-2",0.0%
same,ASMS ratio (%) n = 2,"AS-MS, mixture library, Bcl-2",0.0%
"CCOc1cccc(-c2cc(C(=O)N3CCN(c4ccc(C(=O)NS(C)(=O)=O)nn4)CC3)cc(C(C)(C)C)c2)c1 [B2I015-01, 6-[4-[3-tert-Butyl-5-(3-ethoxyphenyl)benzoyl]piperazin-1-yl]-N-methylsulfonylpyridazine-3-carboxamide]",ASMS ratio (%) n = 1,"AS-MS, mixture library, Bcl-2",0.0%
same,ASMS ratio (%) n = 2,"AS-MS, mixture library, Bcl-2",0.0%
4-[4-[3-[2-(3-Ethoxyphenyl)phenyl]propanoyl]piperazin-1-yl]-N-propylbenzamide [B1M068-01],ASMS ratio (%) n = 1,[1],1.1%
same,ASMS ratio (%) n = 2,[1],0.0%
"CCOc1cncc(-c2cc(OC)c(CN3CCN(c4ccc(C(=O)NCC56CC7CC(CC(C7)C5)C6)cc4)CC3)c(OC)c2)c1 [B1A060-01, N-(1-Adamantylmethyl)-4-[4-[[4-(5-ethoxypyridin-3-yl)-2,6-dimethoxyphenyl]methyl]piperazin-1-yl]benzamide]",ASMS ratio (%) n = 1,[1],0.0%
"CCOc1cccc(-c2ccc(C(=O)N3CCN(c4ccc(C(=O)NS(=O)(=O)c5ccc(NCCSc6ccccc6)c(C(F)(F)F)c5)nn4)CC3)cc2F)c1 [B2R005-01, 6-[4-[4-(3-ethoxyphenyl)-3-fluorobenzoyl]piperazin-1-yl]-N-[4-(2-phenylsulfanylethylamino)-3-(trifluoromethyl)phenyl]sulfonylpyridazine-3-carboxamide]",ASMS ratio (%),n = 1,44.0%
same,ASMS ratio (%),n = 2,39.5%
"CCOc1cccc(-c2cc(CN3CCN(c4ccc(C(=O)N(C)CC56CC7CC(CC(C7)C5)C6)cc4)CC3)cc(C(F)(F)F)c2)c1 [B3A061-01, N-(1-Adamantylmethyl)-4-[4-[[3-(3-ethoxyphenyl)-5-(trifluoromethyl)phenyl]methyl]piperazin-1-yl]-N-methylbenzamide]",ASMS ratio (%) n = 2,[2],421.3%
"CCOc1cncc(-c2ccc(C(=O)N3CCN(c4ccc(C(=O)NS(=O)(=O)c5ccc(NCCSc6ccccc6)c([N+](=O)[O-])c5)nn4)CC3)cc2F)c1 [B2Q006-01, 6-[4-[4-(5-Ethoxypyridin-3-yl)-3-fluorobenzoyl]piperazin-1-yl]-N-[3-nitro-4-(2-phenylsulfanylethylamino)phenyl]sulfonylpyridazine-3-carboxamide]",ASMS ratio (%) n = 1,"AS-MS, mixture library, Bcl-2",9.5%
same,ASMS ratio (%) n = 2,"AS-MS, mixture library, Bcl-2",2.2%
"CCOc1cncc(C#Cc2ccccc2C(=O)N2CCN(c3ccc(C(=O)NS(C)(=O)=O)cc3)CC2)c1 [B2I030-01, 4-[4-[2-[2-(5-Ethoxypyridin-3-yl)ethynyl]benzoyl]piperazin-1-yl]-N-methylsulfonylbenzamide]",ASMS ratio (%) n = 1,"AS-MS, mixture library, Bcl-2",0.0%
same,ASMS ratio (%) n = 2,"AS-MS, mixture library, Bcl-2",0.0%
"CCOc1cncc(C#Cc2ccccc2C(=O)N2CCN(c3ccc(C(=O)NS(=O)(=O)c4ccc(NCCSc5ccccc5)c([N+](=O)[O-])c4)nn3)CC2)c1 [B2Q008-01, 6-[4-[2-[2-(5-Ethoxypyridin-3-yl)ethynyl]benzoyl]piperazin-1-yl]-N-[3-nitro-4-(2-phenylsulfanylethylamino)phenyl]sulfonylpyridazine-3-carboxamide]",ASMS ratio (%) n = 1,"AS-MS, mixture library, Bcl-2",16.5%
same,ASMS ratio (%) n = 2,"AS-MS, mixture library, Bcl-2",0.5%
"CCOc1cncc(-c2ccc(C(=O)N3CCN(c4ccc(C(=O)N(C)CC56CC7CC(CC(C7)C5)C6)cc4)CC3)cc2C)c1 [B3A026-01, N-(1-Adamantylmethyl)-4-[4-[4-(5-ethoxypyridin-3-yl)-3-methylbenzoyl]piperazin-1-yl]-N-methylbenzamide]",ASMS ratio (%) n = 1,[2],4.4%
same,ASMS ratio (%) n = 2,[2],0.6%
"CCOc1cncc(C#Cc2cc(C(=O)N3CCN(c4ccc(C(=O)NS(=O)(=O)CCC(F)(F)F)cc4)CC3)cc(C(F)(F)F)c2)c1 [B2N042-01, 4-[4-[3-[2-(5-Ethoxypyridin-3-yl)ethynyl]-5-(trifluoromethyl)benzoyl]piperazin-1-yl]-N-(3,3,3-trifluoropropylsulfonyl)benzamide]",ASMS ratio (%),n = 1,0.0%
same,ASMS ratio (%),n = 2,0.0%
"CCOc1cccc(-c2ccccc2CCC(=O)N2CCN(c3ccc(C(=O)NS(=O)(=O)c4ccc(NCCSc5ccccc5)c(C(F)(F)F)c4)cc3)CC2)c1 [B2R033-01, 4-[4-[3-[2-(3-Ethoxyphenyl)phenyl]propanoyl]piperazin-1-yl]-N-[4-(2-phenylsulfanylethylamino)-3-(trifluoromethyl)phenyl]sulfonylbenzamide]",ASMS ratio (%),n = 1,3.6%
same,ASMS ratio (%),n = 2,−6.6%
"CCOc1cccc(-c2ccc(C(=O)N3CCN(c4ccc(C(=O)NS(C)(=O)=O)nn4)CC3)c3ccccc23)c1 [B2I013-01, 6-[4-[4-(3-Ethoxyphenyl)naphthalene-1-carbonyl]piperazin-1-yl]-N-methylsulfonylpyridazine-3-carboxamide]",ASMS ratio (%) n = 1,"AS-MS, mixture library, Bcl-2",0.0%
same,ASMS ratio (%) n = 2,"AS-MS, mixture library, Bcl-2",0.0%
"CCOc1cccc(-c2ccc(CN3CCN(c4ccc(C(=O)Nc5ccc(OC)cc5)cc4)CC3)c(OC)c2)c1 [B1O053-01, 4-[4-[[4-(3-Ethoxyphenyl)-2-methoxyphenyl]methyl]piperazin-1-yl]-N-(4-methoxyphenyl)benzamide]",ASMS ratio (%) n = 1,[2],2.2%
same,ASMS ratio (%) n = 2,[2],−1.0%
"CCOc1cncc(-c2csc(C(=O)N3CCN(c4ccc(C(=O)NS(=O)(=O)c5ccc(NCCSc6ccccc6)c([N+](=O)[O-])c5)cc4)CC3)c2)c1 [B2Q024-01, 4-[4-[4-(5-Ethoxypyridin-3-yl)thiophene-2-carbonyl]piperazin-1-yl]-N-[3-nitro-4-(2-phenylsulfanylethylamino)phenyl]sulfonylbenzamide]",ASMS ratio (%) n = 1,"AS-MS, mixture library, Bcl-2",4.5%
same,ASMS ratio (%) n = 2,"AS-MS, mixture library, Bcl-2",7.5%
"CCOc1cccc(-c2ccc(C(=O)N3CCN(c4ccc(C(=O)NS(=O)(=O)c5ccc(NCCSc6ccccc6)c(C(F)(F)F)c5)nn4)CC3)cc2C)c1 [B2R003-01, 6-[4-[4-(3-Ethoxyphenyl)-3-methylbenzoyl]piperazin-1-yl]-N-[4-(2-phenylsulfanylethylamino)-3-(trifluoromethyl)phenyl]sulfonylpyridazine-3-carboxamide]",ASMS ratio (%),n = 1,21.6%
same,ASMS ratio (%),n = 2,0.0%
"CCOc1cccc(-c2ccc(C(=O)N3CCN(c4ccc(C(=O)NS(=O)(=O)c5ccc(NCCSc6ccccc6)c([N+](=O)[O-])c5)nn4)CC3)cc2F)c1 [B2Q005-01, 6-[4-[4-(3-Ethoxyphenyl)-3-fluorobenzoyl]piperazin-1-yl]-N-[3-nitro-4-(2-phenylsulfanylethylamino)phenyl]sulfonylpyridazine-3-carboxamide]",ASMS ratio (%) n = 1,"AS-MS, mixture library, Bcl-2",12.5%
same,ASMS ratio (%) n = 2,"AS-MS, mixture library, Bcl-2",15.3%
"CCOc1cccc(C#Cc2ccccc2C(=O)N2CCN(c3ccc(C(=O)NS(=O)(=O)c4ccc(NCCSc5ccccc5)c(C(F)(F)F)c4)cc3)CC2)c1 [B2R029-01, 4-[4-[2-[2-(3-Ethoxyphenyl)ethynyl]benzoyl]piperazin-1-yl]-N-[4-(2-phenylsulfanylethylamino)-3-(trifluoromethyl)phenyl]sulfonylbenzamide]",ASMS ratio (%),n = 2,0.0%
6-[4-[[4-(5-Ethoxypyridin-3-yl)-3-fluorophenyl]methyl]piperazin-1-yl]-N-propylpyridazine-3-carboxamide [B1M086-01],ASMS ratio (%) n = 1,[2],0.0%
same,ASMS ratio (%) n = 2,[2],0.0%
"CCOc1cccc(-c2ccccc2CN2CCN(c3ccc(C(=O)NS(=O)(=O)C(C)(C)C)nn3)CC2)c1 [B2L071-01, N-tert-Butylsulfonyl-6-[4-[[2-(3-ethoxyphenyl)phenyl]methyl]piperazin-1-yl]pyridazine-3-carboxamide]",ASMS ratio (%),n = 1,1.2%
same,ASMS ratio (%),n = 2,0.0%
